Source: patent US20260317320A1, “C5AR1 ANTAGONISTS AND USES THEREOF” (Vanqua Bio, Inc., priority 2022, published 2026)
Like-named read-outs stand apart in the source and are kept apart here.

How the values were obtained:
[1] = molecular target: T1, complement C5a receptor 1 (C5aR1) (Homo sapiens, UniProt P21730); assay: β-arrestin recruitment via C5aR1 activation in live CHO-K1 cells (PathHunter), antagonist mode; type: cell-based; conditions: antagonist mode; recombinant hC5a (EC90) as competing natural agonist; live CHO-K1 cells; read-out: [Antagonist] B-arrestin2 recruitment: Average IC50
T1 construct: β-galactosidase fragment (PathHunter enzyme complementation); host or cells: CHO-K1 (PathHunter CHO-K1 C5aR1 β-arrestin cell line)
T1 sequence (P21730 1-350): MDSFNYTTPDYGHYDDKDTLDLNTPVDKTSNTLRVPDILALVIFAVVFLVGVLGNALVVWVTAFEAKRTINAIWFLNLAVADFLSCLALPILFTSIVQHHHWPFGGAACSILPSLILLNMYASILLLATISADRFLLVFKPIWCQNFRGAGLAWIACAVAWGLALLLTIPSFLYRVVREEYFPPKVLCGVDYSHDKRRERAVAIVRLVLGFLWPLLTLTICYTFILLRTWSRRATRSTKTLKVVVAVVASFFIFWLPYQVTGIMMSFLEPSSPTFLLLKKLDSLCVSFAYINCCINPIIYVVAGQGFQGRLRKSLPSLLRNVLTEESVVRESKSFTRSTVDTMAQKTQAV
How it was run: (§1)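 Live CHO-K1 cells expressing β-galactosidase fragments fused to β-arrestin and C5aR1; recruitment is read by fragment complementation. In agonist mode compounds are tested alone; in antagonist mode they compete against recombinant hC5a at EC90. IC50 reported in binned ranges.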

[2] = molecular target: T1, complement C5a receptor 1 (C5aR1); assay: β-arrestin recruitment via C5aR1 activation in live CHO-K1 cells (PathHunter), agonist mode; type: cell-based
How it was run: as §1

| Structure (SMILES) | IC50 [1] | [Agonist] B-arrestin2 recruitment: Average EC50 (nM) [2] | [Agonist] B-arrestin2 recruitment: Average EC50 (nM) ([2]; at 10 μM) |
| --- | --- | --- | --- |
| Cc1cnc2cc([C@H]3CC[C@H](c4ccccc4C(F)(F)F)CC3)c(=O)n(Cc3ncccc3C(F)(F)F)c2n1 [compound 202, 3-Methyl-7-((1r,4r)-4-(2-(trifluoromethyl)phenyl)cyclohexyl)-5-((3-(trifluoromethyl)pyridin-2-yl)methyl)pyrido[2,3-b]pyrazin-6(5H)-one] | < 0.5 µM |  | Non-Active at 10 μM |
| Cc1cccc(F)c1N1CCC(c2cc3cncnc3n(Cc3nccnc3C(F)(F)F)c2=O)CC1 [compound 28, 6-(1-(2-fluoro-6-methylphenyl)piperidin-4-yl)-8-((3-(trifluoromethyl)pyrazin-2-yl)methyl)pyrido[2,3-d]pyrimidin-7(8H)-one] | 5 to 100 µM | Non-Active |  |
| Cc1ccc2c(c1)nc(C1CCN(c3c(C)cccc3F)CC1)c(=O)n2Cc1nccnc1C(F)(F)F [144B, 3-(1-(2-Fluoro-6-methylphenyl)piperidin-4-yl)-6-methyl-1-((3-(trifluoromethyl)pyrazin-2-yl)methyl)quinoxalin-2(1H)-one] | > 100 µM |  | Non-Active at 10 μM |
| Cc1cnc2cc([C@H]3CC[C@H](c4cnsc4C)CC3)c(=O)n(Cc3ncccc3C(F)(F)F)c2n1 [compound 249, 3-Methyl-7-((1r,4r)-4-(5-methylisothiazol-4-yl)cyclohexyl)-5-((3-(trifluoromethyl)pyridin-2-yl)methyl)pyrido[2,3-b]pyrazin-6(5H)-one] | < 0.5 µM |  | Non-Active at 10 μM |
| Cc1cnc2cc([C@H]3CC[C@H](c4c(C)cccc4F)CC3)c(=O)n(Cc3ncccc3CC(F)F)c2n1 [compound 232, 5-((3-(2,2-Difluoroethyl)pyridin-2-yl)methyl)-7-((1r,4r)-4-(2-fluoro-6-methylphenyl)cyclohexyl)-3-methylpyrido[2,3-b]pyrazin-6(5H)-one] | < 0.5 µM |  | Non-Active at 10 μM |
| CCc1cnc2cc([C@H]3CC[C@H](c4c(C)cccc4F)CC3)c(=O)n(Cc3ncccc3C(F)(F)F)c2n1 [compound 201, 3-Ethyl-7-((1r,4r)-4-(2-fluoro-6-methylphenyl)cyclohexyl)-5-((3-(trifluoromethyl)pyridin-2-yl)methyl)pyrido[2,3-b]pyrazin-6(5H)-one] | < 0.5 µM |  | Non-Active at 10 μM |
| O=c1c(C2CCN(c3cnccc3C(F)(F)F)CC2)cc2nccnc2n1Cc1ncccc1C(F)(F)F [compound 60, 5-((3-(trifluoromethyl)pyridin-2-yl)methyl)-7-(1-(4-(trifluoromethyl)pyridin-3-yl)piperidin-4-yl)pyrido[2,3-b]pyrazin-6(5H)-one] | < 0.5 µM | Non-Active |  |
| Cc1cnc2cc([C@H]3CC[C@H](c4ncsc4C)CC3)c(=O)n(Cc3ncccc3OC(F)(F)F)c2n1 [compound 166, 3-Methyl-7-((1r,4r)-4-(5-methylthiazol-4-yl)cyclohexyl)-5-((3-(trifluoromethoxy)pyridin-2-yl)methyl)pyrido[2,3-b]pyrazin-6(5H)-one] | < 0.5 µM |  | Non-Active at 10 μM |
| Cc1ncc2cc(C3CCN(c4c(C)cccc4F)CC3)c(=O)n(Cc3nccnc3C(F)(F)F)c2n1 [compound 47, 6-(1-(2-Fluoro-6-methylphenyl)piperidin-4-yl)-2-methyl-8-((3-(trifluoromethyl)pyrazin-2-yl)methyl)pyrido[2,3-d]pyrimidin-7(8H)-one] | 0.5 to 5 µM | Non-Active |  |
| CCc1cnc2cc([C@H]3CC[C@H](c4c(C)cccc4F)CC3)c(=O)n(Cc3ncccc3OC(F)(F)F)c2n1 [compound 204, 3-Ethyl-7-((1r,4r)-4-(2-fluoro-6-methylphenyl)cyclohexyl)-5-((3-(trifluoromethoxy)pyridin-2-yl)methyl)pyrido[2,3-b]pyrazin-6(5H)-one] | < 0.5 µM |  | Non-Active at 10 μM |
| Cc1cnc2cc([C@H]3CC[C@H](c4c(F)cccc4F)CC3)c(=O)n(Cc3ncccc3C(F)(F)F)c2n1 [compound 222, 7-((1r,4r)-4-(2,6-Difluorophenyl)cyclohexyl)-3-methyl-5-((3-(trifluoromethyl)pyridin-2-yl)methyl)pyrido[2,3-b]pyrazin-6(5H)-one] | < 0.5 µM |  | Non-Active at 10 μM |
| Cc1cccc(F)c1N1CCC(c2cc3nccnc3n(Cc3ccncc3C(F)(F)F)c2=O)CC1 [compound 17, 7-(1-(2-Fluoro-6-methylphenyl)piperidin-4-yl)-5-((3-(trifluoromethyl)pyridin-4-yl)methyl) pyrido[2,3-b]pyrazin-6(5H)-one] | 0.5 to 5 µM | Non-Active |  |
| Cc1cnc2cc([C@H]3CC[C@H](c4c(F)ccc5cnn(C)c54)CC3)c(=O)n(Cc3ncccc3C(F)(F)F)c2n1 [compound 217, 3-Methyl-7-[(1r,4r)-4-(6-fluoro-1-methylindazol-7-yl)cyclohexyl]-5-{[3-(trifluoromethyl)pyridin-2-yl]methyl}pyrido[2,3-b]pyrazin-6-one] | 5 to 100 µM |  | Non-Active at 10 μM |
| CCc1cnc2c(cc([C@H]3CC[C@H](c4c(C)cccc4F)CC3)c(=O)n2Cc2ncccc2OC(F)(F)F)n1 [compound 215, 2-Ethyl-7-((1r,4r)-4-(2-fluoro-6-methylphenyl)cyclohexyl)-5-((3-(trifluoromethoxy)pyridin-2-yl)methyl)pyrido[2,3-b]pyrazin-6(5H)-one] | < 0.5 µM |  | Non-Active at 10 μM |

More lines, now with the values ahead:

| IC50 [1] | [Agonist] B-arrestin2 recruitment: Average EC50 (nM) [2] | [Agonist] B-arrestin2 recruitment: Average EC50 (nM) ([2]; at 10 μM) | Structure (SMILES) |
| --- | --- | --- | --- |
| 0.5 to 5 µM | Non-Active |  | Cc1cccc(F)c1N1CCN(c2cc3nccnc3n(Cc3nccnc3C(F)(F)F)c2=O)CC1 [compound 24, 7-(4-(2-Fluoro-6-methylphenyl)piperazin-1-yl)-5-((3-(trifluoromethyl)pyrazin-2-yl)methyl)pyrido[2,3-b]pyrazin-6(5H)-one] |
| 0.5 to 5 µM | Non-Active |  | Cc1c(C2CCN(c3cnccc3C(F)(F)F)CC2)c(=O)n(Cc2ncccc2F)c2nccnc12 [compound 86, 5-((3-Fluoropyridin-2-yl)methyl)-8-methyl-7-(1-(4-(trifluoromethyl)pyridin-3-yl)piperidin-4-yl)pyrido[2,3-b]pyrazin-6(5H)-one] |
| 5 to 100 µM | Non-Active |  | Cc1cccc(F)c1N1CCC(c2cc3nccnc3n([C@@H]3CCCc4cccnc43)c2=O)CC1 [40a, (R)-7-(1-(2-Fluoro-6-methylphenyl)piperidin-4-yl)-5-(5,6,7,8-tetrahydroquinolin-8-yl)pyrido[2,3-b]pyrazin-6(5H)-one] |
| < 0.5 µM |  | Non-Active at 10 μM | Cc1ccc2cc([C@H]3CC[C@H](c4cnccc4C(F)(F)F)CC3)c(=O)n(Cc3ncccc3OC(F)(F)F)c2n1 [compound 247, 7-Methyl-1-((3-(trifluoromethoxy)pyridin-2-yl)methyl)-3-((1r,4r)-4-(4-(trifluoromethyl)pyridin-3-yl)cyclohexyl)-1,8-naphthyridin-2(1H)-one] |
| < 0.5 µM |  | Non-Active at 10 μM | CCc1cnc2c(cc([C@H]3CC[C@H](c4c(C)cccc4F)CC3)c(=O)n2Cc2ncccc2C(F)(F)F)n1 [compound 211, 2-Ethyl-7-((1r,4r)-4-(2-fluoro-6-methylphenyl)cyclohexyl)-5-((3-(trifluoromethyl)pyridin-2-yl)methyl)pyrido[2,3-b]pyrazin-6(5H)-one] |
| < 0.5 µM |  | Non-Active at 10 μM | Cc1ccc2cc([C@H]3CC[C@H](c4c(F)cccc4F)CC3)c(=O)n(Cc3ncccc3OC(F)(F)F)c2n1 [compound 246, 3-((1r,4r)-4-(2,6-Difluorophenyl)cyclohexyl)-7-methyl-1-((3-(trifluoromethoxy)pyridin-2-yl)methyl)-1,8-naphthyridin-2(1H)-one] |
| < 0.5 µM |  | Non-Active at 10 μM | Cc1cnc2cc([C@H]3CC[C@H](c4ncccc4C(F)(F)F)CC3)c(=O)n(Cc3ncccc3C(F)(F)F)c2n1 [compound 180, 3-Methyl-7-((1r,4r)-4-(3-(trifluoromethyl)pyridin-2-yl)cyclohexyl)-5-((3-(trifluoromethyl)pyridin-2-yl)methyl)pyrido[2,3-b]pyrazin-6(5H)-one] |
| < 0.5 µM | Non-Active |  | Cc1cnc2cc(C3CCN(c4c(C)cccc4F)CC3)c(=O)n(Cc3nccnc3C(F)F)c2n1 [compound 120, 5-((3-(Difluoromethyl)pyrazin-2-yl)methyl)-7-(1-(2-fluoro-6-methylphenyl)piperidin-4-yl)-3-methylpyrido[2,3-b]pyrazin-6(5H)-one] |
| 0.5 to 5 µM | Non-Active |  | Cc1cnc(F)cc1N1CCC(c2cc3nccnc3n(Cc3ccccc3C(F)(F)F)c2=O)CC1 [compound 26, 7-(1-(2-fluoro-5-methylpyridin-4-yl)piperidin-4-yl)-5-(2-(trifluoromethyl)benzyl)pyrido-[2,3-b]pyrazin-6(5H)-one] |
